Test results from patent US20230098403A1, “MAGNETIC RESONANCE IMAGING CONTRAST AGENT, PREPARATION METHOD AND USE THEREOF” (GUANGZHOU PINGLAN MEDICAL TECHNOLOGY CO., LTD., priority 2020, published 2023).

Tests used:
[1] = Relaxivity measurement (T1 and T2 relaxation, MRI Contrast Agent Analyzer); format: physicochemical; conditions: 0.5 T, 32° C.
Description: The method for measuring the relaxivity comprises the following steps: preparing contrast agent solutions in a gradient concentration (0.054, 0.109, 0.224, 0.451, 0.906 mM, in Hepes buffer, pH=7.4), and measuring the contrast agent samples at different concentrations by Niumag PQ001 MRI Contrast Agent Analyzer (0.5±0.08T, main frequency of instrument: 21.3 MHz; at 32° C.) to respectively obtain their T1 and T2 relaxation time, and then performing a linear fitting between the relaxation rate, Ri (Ri=1/Ti, i=1, 2) and the contrast agent concentrations to obtain a slope, i.e., relaxivity (ri, i=1, 2). Relaxivity reflects the ability of magnetic resonance imaging contrast agent to alter the relaxation time of water proton and is an important parameter to evaluate the quality of contrast agent. Relaxivity (ri, i=1, 2) is defined as the alteration in the relaxation rate of water proton (1/Ti, i=1, 2) by unit concentration of MRI Contrast agent (mmol/L).

[2] = comparison value for the commercial agent; cited from earlier work

Compound | relaxation efficiency r1 [1] | relaxivity r1 [2]
O=C([O-])CN(CP(=O)([O-])O)C1CCCCC1N(CC(=O)[O-])CP(=O)([O-])O.[Fe+3].[Na+] (centres unmarked) [Example 4] | 1.80 mmol⁻¹ s⁻¹ | 
CNC[C@H](O)[C@@H](O)[C@H](O)[C@H](O)CO.CNC[C@H](O)[C@@H](O)[C@H](O)[C@H](O)CO.O=C([O-])CN(CCN(CC(=O)[O-])CC(=O)O)CCN(CC(=O)[O-])CC(=O)O.[Gd+3] [Magnvist®] |  | 3.4 mmol⁻¹ s⁻¹
